Measurements taken from patent US10005767B2, “Compositions and methods for inhibition of the JAK pathway” (Rigel Pharmaceuticals, Inc., priority 2009, dated 2018).
pIC50: −log10 of the molar value.

Each compound was assayed on human primary T-cells, IL-2 stimulated proliferation (JAK-1 and JAK-3 dependent; reported as JAK3 activity) (assay: Human primary T-cell proliferation stimulated by IL-2 (Example 3)). Conditions: tested under conditions described in Example 3 (IL-2 stimulated human primary T-cell proliferation); read-out: ability to inhibit JAK3 activity, IC50 range (Table V).
Assay type: cell-based
Source text: The activity of the compounds described herein can further be characterized by assaying the effect of the 2,4-pyrimidinediamine compounds described herein on the proliferative response of primary human T-cells. In this assay, primary human T-cells derived from peripheral blood and pre-activated through stimulation of the T-cell receptor and CD28, proliferate in culture in response to the cytokine Interleukin-2 (IL-2). This proliferative response is dependent on the activation of JAK1 and JAK3 tyrosine kinases, which phosphorylate and activate the transcription factor Stat-5. The primary human T-cells are incubated with the 2,4-pyrimidinediamine compounds in the presence of IL-2 for 72 hours, and at the assay endpoint intracellular ATP concentrations are measured to assess cell viability. A reduction in cell proliferation compared to control conditions is indicative of inhibition of the JAK kinase pathway.
Primary human T-cells derived from peripheral blood and pre-activated through stimulation of the T-cell receptor and CD28, proliferate in vitro in response to the cytokine Interleukin-2 (IL-2). This proliferative response is dependent on the activation of JAK-1 and JAK-3 tyrosine kinases, which phosphorylate and activate the transcription factor Stat-5.
Human primary T cells were prepared as follows. […] The lymphocytes at the serum: ficoll interface were recovered and washed twice with 5 volumes of PBS. […] The primary T-cells were stimulated for 3-4 days, then transferred to a fresh flask and maintained in RPMI with 10% FBS and 40 U/mL IL-2.
The day prior to the assay set up, primary T-cells were centrifuged and resuspended in fresh RPMI with 10% FBS but without IL-2 and starved overnight. For the assay, the primary T-cells were centrifuged and resuspended Yssel's medium at 2×10^6 cells/mL. 50 μL of cell suspension containing 80 U/mL IL-2 was added to each well of a flat bottom 96 well black plate. For the unstimulated control, IL-2 was omitted from the last column on the plate. […] 50 μL of 2× compound was added per well in duplicate and the cells were allowed to proliferate for 72 hours at 37° C.
Proliferation was measured using CellTiter-Glo® Luminescent Cell Viability Assay (Promega), which determines the number of viable cells in culture based on quantitation of the ATP present, as an indicator of metabolically active cells. The substrate was thawed and allowed to come to ambient temperature. After mixing the Cell Titer-Glo reagent and diluent together, 100 μL was added to each well. The plates were mixed on an orbital shaker for two minutes to induce lysis and incubated at ambient temperature for an additional ten minutes to allow the signal to equilibrate.
The compound designations in Table V are consistent with those of Tables I-IV above.

SMILES	pIC50
Cc1cnc(Nc2cccc(S(N)(=O)=O)c2)nc1Nc1ccc2c(c1)oc(=O)n2C [Compound I-63, N2-((3-aminosulfonyl)phenyl)-N4-(3-methyl-2-oxo-2,3-dihydrobenzo[d]oxazol-6-yl)-5-methylpyrimidine-2,4-diamine]	> 6.30
Cc1cnc(Nc2ccc(S(N)(=O)=O)cc2)nc1Nc1ccc2c(c1)oc(=O)n2C [Compound I-64, N2-((4-aminosulfonyl)phenyl)-N4-(3-methyl-2-oxo-2,3-dihydrobenzo[d]oxazol-6-yl)-5-methylpyrimidine-2,4-diamine]	< 5.00
Cc1cnc(Nc2cccc(S(C)(=O)=O)c2)nc1Nc1ccc2c(c1)oc(=O)n2C [Compound I-65, N2-((3-methylsulfonyl)phenyl)-N4-(3-methyl-2-oxo-2,3-dihydrobenzo[d]oxazol-6-yl)-5-methylpyrimidine-2,4-diamine]	> 6.30
Cc1cnc(Nc2ccc(S(C)(=O)=O)cc2)nc1Nc1ccc2c(c1)oc(=O)n2C [Compound I-66, N2-((4-methylsulfonyl)phenyl)-N4-(3-methyl-2-oxo-2,3-dihydrobenzo[d]oxazol-6-yl)-5-methylpyrimidine-2,4-diamine]	> 6.30
Cc1cnc(Nc2cccc(S(N)(=O)=O)c2)nc1Nc1ccc2oc(=O)n(C)c2c1 [Compound I-67, N2-((3-aminosulfonyl)phenyl)-N4-(3-methyl-2-oxo-2,3-dihydrobenzo[d]oxazol-5-yl)-5-methylpyrimidine-2,4-diamine]	> 6.30
Cc1cnc(Nc2ccc(S(N)(=O)=O)cc2)nc1Nc1ccc2oc(=O)n(C)c2c1 [Compound I-68, N2-((4-aminosulfonyl)phenyl)-N4-(3-methyl-2-oxo-2,3-dihydrobenzo[d]oxazol-5-yl)-5-methylpyrimidine-2,4-diamine]	> 6.30
Cc1cnc(Nc2cccc(S(C)(=O)=O)c2)nc1Nc1ccc2oc(=O)n(C)c2c1 [Compound I-69, N2-((3-methylsulfonyl)phenyl)-N4-(3-methyl-2-oxo-2,3-dihydrobenzo[d]oxazol-5-yl)-5-methylpyrimidine-2,4-diamine]	> 6.30
Cc1cnc(Nc2ccc(S(C)(=O)=O)cc2)nc1Nc1ccc2oc(=O)n(C)c2c1 [Compound I-70, N2-((4-methylsulfonyl)phenyl)-N4-(3-methyl-2-oxo-2,3-dihydrobenzo[d]oxazol-5-yl)-5-methylpyrimidine-2,4-diamine]	> 6.30
Cc1cnc(Nc2cccc(NS(C)(=O)=O)c2)nc1Nc1ccc2oc(=O)n(C)c2c1 [Compound I-71, N2-((3-methylsulfonylamino)phenyl)-N4-(3-methyl-2-oxo-2,3-dihydrobenzo[d]oxazol-5-yl)-5-methylpyrimidine-2,4-diamine]	> 6.30
Cc1cnc(Nc2ccc(NS(C)(=O)=O)cc2)nc1Nc1ccc2oc(=O)n(C)c2c1 [Compound I-72, N2-((4-methylsulfonylamino)phenyl)-N4-(3-methyl-2-oxo-2,3-dihydrobenzo[d]oxazol-5-yl)-5-methylpyrimidine-2,4-diamine]	> 6.30
Cc1cnc(Nc2cccc(NS(C)(=O)=O)c2)nc1Nc1ccc2c(c1)oc(=O)n2C [Compound I-73, N2-((3-methylsulfonylamino)phenyl)-N4-(3-methyl-2-oxo-2,3-dihydrobenzo[d]oxazol-6-yl)-5-methylpyrimidine-2,4-diamine]	> 6.30
Cc1cnc(Nc2ccc(NS(C)(=O)=O)cc2)nc1Nc1ccc2c(c1)oc(=O)n2C [Compound I-74, N2-((4-methylsulfonylamino)phenyl)-N4-(3-methyl-2-oxo-2,3-dihydrobenzo[d]oxazol-6-yl)-5-methylpyrimidine-2,4-diamine]	> 6.30
Cn1c(=O)oc2ccc(Nc3nc(Nc4cccc(S(N)(=O)=O)c4)ncc3F)cc21 [Compound I-75, N2-((3-aminosulfonyl)phenyl)-N4-(3-methyl-2-oxo-2,3-dihydrobenzo[d]oxazol-5-yl)-5-fluoropyrimidine-2,4-diamine]	> 6.30
Cn1c(=O)oc2ccc(Nc3nc(Nc4ccc(S(N)(=O)=O)cc4)ncc3F)cc21 [Compound I-76, N2-((4-aminosulfonyl)phenyl)-N4-(3-methyl-2-oxo-2,3-dihydrobenzo[d]oxazol-5-yl)-5-fluoropyrimidine-2,4-diamine]	5.30 to 6.30
Cn1c(=O)oc2ccc(Nc3nc(Nc4cccc(S(C)(=O)=O)c4)ncc3F)cc21 [Compound I-77, N2-((3-methylsulfonyl)phenyl)-N4-(3-methyl-2-oxo-2,3-dihydrobenzo[d]oxazol-5-yl)-5-fluoropyrimidine-2,4-diamine]	5.30 to 6.30
Cn1c(=O)oc2ccc(Nc3nc(Nc4ccc(S(C)(=O)=O)cc4)ncc3F)cc21 [Compound I-78, N2-((4-methylsulfonyl)phenyl)-N4-(3-methyl-2-oxo-2,3-dihydrobenzo[d]oxazol-5-yl)-5-fluoropyrimidine-2,4-diamine]	5.30 to 6.30
Cn1c(=O)oc2ccc(Nc3nc(Nc4cccc(NS(C)(=O)=O)c4)ncc3F)cc21 [Compound I-79, N2-((3-methylsulfonylamino)phenyl)-N4-(3-methyl-2-oxo-2,3-dihydrobenzo[d]oxazol-5-yl)-5-fluoropyrimidine-2,4-diamine]	5.30 to 6.30
Cn1c(=O)oc2ccc(Nc3nc(Nc4ccc(NS(C)(=O)=O)cc4)ncc3F)cc21 [Compound I-80, N2-((4-methylsulfonylamino)phenyl)-N4-(3-methyl-2-oxo-2,3-dihydrobenzo[d]oxazol-5-yl)-5-fluoropyrimidine-2,4-diamine]	> 6.30
Cc1ccc(Nc2ncc(C)c(Nc3ccc4oc(=O)n(C)c4c3)n2)cc1NS(C)(=O)=O [Compound I-82, N2-((3-methylsulfonylamino-4-methyl)phenyl)-N4-(3-methyl-2-oxo-2,3-dihydrobenzo[d]oxazol-5-yl)-5-methylpyrimidine-2,4-diamine]	> 6.30
Cc1ccc(Nc2ncc(C)c(Nc3ccc4c(c3)oc(=O)n4C)n2)cc1NS(C)(=O)=O [Compound I-83, N2-((3-methylsulfonylamino-4-methyl)phenyl)-N4-(3-methyl-2-oxo-2,3-dihydrobenzo[d]oxazol-6-yl)-5-methylpyrimidine-2,4-diamine]	> 6.30
Cc1ccc(Nc2ncc(F)c(Nc3ccc4oc(=O)[nH]c4c3)n2)cc1NS(C)(=O)=O [Compound I-84, N2-((3-methylsulfonylamino-4-methyl)phenyl)-N4-(2-oxo-2,3-dihydrobenzo[d]oxazol-5-yl)-5-fluoropyrimidine-2,4-diamine]	> 6.30
Cc1ccc(Nc2ncc(F)c(Nc3ccc4oc(=O)n(C)c4c3)n2)cc1NS(C)(=O)=O [Compound I-85, N2-((3-methylsulfonylamino-4-methyl)phenyl)-N4-(3-methyl-2-oxo-2,3-dihydrobenzo[d]oxazol-5-yl)-5-fluoropyrimidine-2,4-diamine]	5.30 to 6.30
Cc1ccc(Nc2ncc(F)c(Nc3ccc4c(c3)oc(=O)n4C)n2)cc1NS(C)(=O)=O [Compound I-86, N2-((3-methylsulfonylamino-4-methyl)phenyl)-N4-(3-methyl-2-oxo-2,3-dihydrobenzo[d]oxazol-6-yl)-5-fluoropyrimidine-2,4-diamine]	< 5.00
Cc1cnc(Nc2ccc(F)c(NS(C)(=O)=O)c2)nc1Nc1ccc2oc(=O)[nH]c2c1 [Compound I-87, N2-((4-fluoro-3-methylsulfonylamino)phenyl)-N4-(2-oxo-2,3-dihydrobenzo[d]oxazol-5-yl)-5-methylpyrimidine-2,4-diamine]	> 6.30
Cc1cnc(Nc2ccc(F)c(NS(C)(=O)=O)c2)nc1Nc1ccc2oc(=O)n(C)c2c1 [Compound I-88, N2-((4-fluoro-3-methylsulfonylamino)phenyl)-N4-(3-methyl-2-oxo-2,3-dihydrobenzo[d]oxazol-5-yl)-5-methylpyrimidine-2,4-diamine]	> 6.30
Cc1cnc(Nc2ccc(F)c(NS(C)(=O)=O)c2)nc1Nc1ccc2c(c1)oc(=O)n2C [Compound I-89, N2-((4-fluoro-3-methylsulfonylamino)phenyl)-N4-(3-methyl-2-oxo-2,3-dihydrobenzo[d]oxazol-6-yl)-5-methylpyrimidine-2,4-diamine]	> 6.30
CS(=O)(=O)Nc1cc(Nc2ncc(F)c(Nc3ccc4oc(=O)[nH]c4c3)n2)ccc1F [Compound I-90, N2-((4-fluoro-3-methylsulfonylamino)phenyl)-N4-(2-oxo-2,3-dihydrobenzo[d]oxazol-5-yl)-5-fluoropyrimidine-2,4-diamine]	> 6.30
